Source: patent US6599514B1, “Antifungal composition” (Syngenta Limited, priority 1997, dated 2003)

How the values were obtained:
Assay type in all cases: cell-based
Fusarium culmorum = experiment: Antifungal microplate growth inhibition assay (MIC); conditions: 48 h, 24° C.; for MIC / concentration required alone to give strong growth inhibition: medium B (½ PDB + 1 mM CaCl2 + 50 mM KCl), agent used alone
Description: (§1) Unless otherwise stated the incubation was carried out at 24° C. for 48 hours. Percentages of fungal growth were estimated by microscopic examination of the microplates after the incubation period. The control microcultures were used as a reference in order to estimate fungal growth inhibition.
(§2) The antifungal potency of the purified proteins was assessed on different food spoilage fungi using the assay described above. Growth of fungi, collection and harvest of fungal spores were done as previously described (Broekaert et al., 1990, FEMS Microbiol. Lett., 69: 55-60).
(§3) The percentage growth inhibition was estimated by microscopic inspection of the microtitre plates, taking the microculture control with no antifungal protein added as a reference for normal fungal growth.
(§4) The Ib-AMP1 pure protein was added to the test solution and mixed with the fungal spore suspension as described above. Following inoculation the plates were incubated at 24° C. for 48 hours. […] A summary of the results obtained is shown on table 14.

Penicillium roquefortii = experiment: Antifungal microplate growth inhibition assay (MIC, growth % of control); conditions: for MIC / concentration required alone to give strong growth inhibition: medium B (½ PDB + 1 mM CaCl2 + 50 mM KCl), agent used alone; for Fungal growth as compared to the control: individual application
Description: as §1, §2, §3
(§5) Following inoculation the plates were incubated at 24° C. for 48 hours.
(§6) Chitinase-I and β-1,3-glucanase were extracted and purified from tobacco according to the method published by Sela-Buurlage, M. B., et al., in 1993 (Plant Physiol. 101, 857-863). The purified enzymes were mixed in a 1:1 ratio and then tested for antifungal activity against the food spoilage fungal strains Penicillium roquefortii and P. chrysogenum. The antifungal assays were carried out as described above. Assessment of growth inhibition was carried out by microscopic examination after 48 and 96 hours incubation at 24° C.
(§7) In Colby's formula, E1=X1Y1/100, X1 and Y1 represent growth as a percentage of control with compound A (dosage p) and compound B (dosage q), respectively. E1 is the i5 expected growth as a percentage of control with the mixture A and B (dosage p+q). […] Comparison of the observed and expected percent inhibition responses (Eobs/Eexp) indicates synergism (Eobs/Eexp>1) or antagonism (Eobs/Eexp<1).

Penicillium chrysogenum = experiment: as above; conditions: for Fungal growth as compared to the control: individual application; for MIC / concentration required alone to give strong growth inhibition: medium B (½ PDB + 1 mM CaCl2 + 50 mM KCl), agent used alone
Description: as §1, §2, §3, §5, §6, §7

Cladosporium sp. = experiment: Antifungal microplate growth inhibition assay (MIC); conditions: 48 h, 24° C.; for MIC / concentration required alone to give strong growth inhibition: medium B (½ PDB + 1 mM CaCl2 + 50 mM KCl), agent used alone
Description: as §1, §2, §3, §5

Trichoderma harzianum = experiment: as above; conditions: 48 h, 24° C.; for MIC / concentration required alone to give strong growth inhibition: medium B (½ PDB + 1 mM CaCl2 + 50 mM KCl), agent used alone
Description: as §1, §2, §3, §5

Alternaria sp. = experiment: as above; conditions: 48 h, 24° C.; for MIC / concentration required alone to give strong growth inhibition: medium B (½ PDB + 1 mM CaCl2 + 50 mM KCl), agent used alone
Description: as §1, §2, §3, §5

[1] = test system: range of food spoilage strains; experiment: Antifungal microplate assay, statements on the whole range of strains; conditions: 200 ppm (maximum concentration tested), medium B, 48 hours, 24° C.
Description: as §1
The following fungal strains were used: Fusarium culmorum, Penicillium chrysogenum, Penicillium roquefortii, Penicillium commune, Penicillium nalgiovense, Mucor plumbeus, Scopulariopsis brevicaulis, Aspergillus versicolor, Alternaria sp., Cladosporium sp. and Trichoderma harzianum.
as §3, §4

Mucor plumbeus = experiment: Antifungal microplate growth inhibition assay (MIC); conditions: medium B (½ PDB + 1 mM CaCl2 + 50 mM KCl), 48 h, 24° C., agent used alone
Penicillium commune = experiment: as above; conditions: medium B (½ PDB + 1 mM CaCl2 + 50 mM KCl), 48 h, 24° C., agent used alone
Description: Unless otherwise stated the incubation was carried out at 24° C. for 48 hours. Percentages of fungal growth were estimated by microscopic examination of the microplates after the incubation period. The control microcultures were used as a reference in order to estimate fungal growth inhibition. […] The antifungal potency of the purified proteins was assessed on different food spoilage fungi using the assay described above. Growth of fungi, collection and harvest of fungal spores were done as previously described (Broekaert et al., 1990, FEMS Microbiol. Lett., 69: 55-60). […] The percentage growth inhibition was estimated by microscopic inspection of the microtitre plates, taking the microculture control with no antifungal protein added as a reference for normal fungal growth.

[2] = medium B, 96 hours, 24° C., used alone
[3] = medium A (½ PDB), protein alone
[4] = medium A (½ PDB), 48 h, 24° C., protein alone

COc1ccc(O)c(C(C)(C)C)c1 [BHA, butylated hydroxyanisole]
MIC / concentration required alone to give strong growth inhibition (Fusarium culmorum): >200 ppm | MIC / concentration required alone to give strong growth inhibition (Penicillium roquefortii; 48 h, 24° C.): >200 ppm | Fungal growth as compared to the control (Penicillium chrysogenum; 50 ppm, medium B): 99% | MIC / concentration required alone to give strong growth inhibition (Penicillium chrysogenum; 48 h, 24° C.): >200 ppm | MIC / concentration required alone to give strong growth inhibition (Cladosporium sp.): >200 ppm | MIC / concentration required alone to give strong growth inhibition (Trichoderma harzianum): >200 ppm | MIC / concentration required alone to give strong growth inhibition (Alternaria sp.): >200 ppm | Antifungal activity of BHA added alone [1]: no antifungal activity was observed | MIC / concentration required alone to give strong growth inhibition (Mucor plumbeus): >200 ppm

O=C([O-])CN(CCN(CC(=O)[O-])CC(=O)[O-])CC(=O)[O-].[Ca+2].[Na+].[Na+] [CaNa2EDTA, calcium disodium EDTA]
MIC / concentration required alone to give strong growth inhibition (Penicillium roquefortii; 48 h, 24° C.): >150 ppm | MIC / concentration required alone to give strong growth inhibition (Penicillium chrysogenum; 48 h, 24° C.): >150 ppm

O=C(O)CN(CCN(CC(=O)O)CC(=O)O)CC(=O)O [EDTA]
MIC / concentration required alone to give strong growth inhibition (Penicillium roquefortii; 48 h, 24° C.): >200 ppm | MIC / concentration required alone to give strong growth inhibition (Penicillium chrysogenum; 48 h, 24° C.): 200 ppm | MIC / concentration required alone to give strong growth inhibition (Penicillium commune): >200 ppm

C/C=C/C=C/C(=O)[O-].[K+] [K sorbate, potassium sorbate]
Fungal growth inhibition, % of the controls (Penicillium roquefortii; K sorbate alone, 96 hours incubation, medium B, strain not told apart from P. chrysogenum): 10-20% | Fungal growth as compared to the control (Penicillium roquefortii; 500 ppm, medium B): 90% | MIC / concentration required alone to give strong growth inhibition (Penicillium roquefortii; 48 h, 24° C.): 1500 ppm | Concentration required alone to give strong growth inhibition (Penicillium roquefortii; [2]): >2,000 ppm | Fungal growth inhibition, % of the controls (Penicillium chrysogenum; K sorbate alone, 96 hours incubation, medium B, strain not told apart from P. roquefortii): 10-20% | MIC / concentration required alone to give strong growth inhibition (Penicillium chrysogenum; 48 h, 24° C.): 1000 ppm | Concentration required alone to give strong growth inhibition (Penicillium chrysogenum; [2]): >2,000 ppm

CC(O)C(=O)O (stereo not shown) [Lactic acid, lactic acid]
Fungal growth as compared to the control (Penicillium chrysogenum; 2500 ppm, medium B): 90% | MIC / concentration required alone to give strong growth inhibition (Penicillium chrysogenum; 48 h, 24° C.): 20,000 ppm

O=C([O-])CN(CCN(CC(=O)O)CC(=O)O)CC(=O)[O-].[Na+].[Na+] [Na2H2EDTA, disodium dihydrogen EDTA]
Fungal growth as compared to the control (Penicillium chrysogenum; 75 ppm, medium B): 90% | MIC / concentration required alone to give strong growth inhibition (Penicillium chrysogenum; 48 h, 24° C.): >150 ppm

O=C([O-])c1ccccc1.[Na+] [Na benzoate, sodium benzoate]
Fungal growth as compared to the control (Penicillium chrysogenum; 500 ppm, medium B): 99% | MIC / concentration required alone to give strong growth inhibition (Penicillium chrysogenum; 48 h, 24° C.): 6000 ppm

Rs-AFP2: purified antifungal protein of Raphanus sativus (radish) seeds, described in WO93/05153 (QKLCQRPSGTWSGVCGNNNACKNQCIRLEKARHGSCNYVFPAHKCICYFPC; UniProt P30230 30-80, looked up)
MIC (minimum concentration giving more than 90% growth inhibition) (Fusarium culmorum; [3]): 3.1 ppm | MIC / concentration required alone to give strong growth inhibition (Fusarium culmorum): 12.5 ppm | Fungal growth as compared to the control (Penicillium roquefortii; 3.1 ppm, medium B): 100% | MIC (minimum concentration giving more than 90% growth inhibition) (Penicillium roquefortii; [4]): 3 ppm | MIC / concentration required alone to give strong growth inhibition (Penicillium roquefortii; 48 h, 24° C.): 25 ppm | MIC (minimum concentration giving more than 90% growth inhibition) (Penicillium chrysogenum; [4]): >200 ppm | MIC / concentration required alone to give strong growth inhibition (Penicillium chrysogenum; 48 h, 24° C.): >200 ppm | MIC (minimum concentration giving more than 90% growth inhibition) (Cladosporium sp.; [3]): 100 ppm | MIC / concentration required alone to give strong growth inhibition (Cladosporium sp.): >200 ppm | MIC (minimum concentration giving more than 90% growth inhibition) (Trichoderma harzianum; [3]): 200 ppm | MIC / concentration required alone to give strong growth inhibition (Trichoderma harzianum): >200 ppm | MIC (minimum concentration giving more than 90% growth inhibition) (Alternaria sp.; [3]): 6.25 ppm | MIC / concentration required alone to give strong growth inhibition (Alternaria sp.): 200 ppm
